In patent US20160272613A1, “Pyridazinone Derivatives and their use as Herbicides” (BAYER CROPSCIENCE AKTIENGESELLSCHAFT, priority 2013, published 2016):

Assays:
Type in all cases: in vivo
[1] = system: Veronica persica; experiment: Pre-emergence herbicidal action against harmful plants; conditions: 320 g/ha, visual score after 3 weeks vs untreated controls
Source text: (§1) Seeds of monocotyledonous and dicotyledonous weed plants and crop plants are laid out in wood-fiber pots in sandy loam and covered with soil. The compounds of the invention, formulated in the form of wettable powders (WP) or as emulsion concentrates (EC), are then applied to the surface of the covering soil in the form of an aqueous suspension or emulsion at a water application rate equating to 600 to 800 l/ha, with addition of 0.2% wetting agent. After the treatment, the pots are placed in a greenhouse and kept under good growth conditions for the trial plants. The damage to the trial plants is scored visually after a trial duration of 3 weeks by comparison with untreated controls (herbicidal activity in percent (%): 100% efficacy=the plants have died, 0% efficacy=like control plants). In this trial, for example, compound no.

[2] = system: Stellaria media; experiment: as above; conditions: 320 g/ha, visual score after 3 weeks vs untreated controls
Source text: as §1

[3] = system: Amaranthus retroflexus; experiment: as above; conditions: 320 g/ha, visual score after 3 weeks vs untreated controls
Source text: as §1

[4] = system: Ipomoea purpurea; experiment: as above; conditions: 320 g/ha, visual score after 3 weeks vs untreated controls
Source text: as §1

[5] = system: Cyperus esculentus; experiment: as above; conditions: 320 g/ha, visual score after 3 weeks vs untreated controls
Source text: as §1

[6] = system: Viola tricolor; experiment: as above; conditions: 320 g/ha, visual score after 3 weeks vs untreated controls
Source text: as §1

[7] = system: Abutilon theophrasti; experiment: as above; conditions: 320 g/ha, visual score after 3 weeks vs untreated controls
Source text: as §1

[8] = system: Veronica persica; experiment: Post-emergence herbicidal action against harmful plants; conditions: 80 g/ha, visual score after about 3 weeks vs untreated controls
Experimental: (§2) Seeds of monocotyledonous and dicotyledonous weed and crop plants are laid out in sandy loam in wood-fiber pots, covered with soil and cultivated in a greenhouse under good growth conditions. 2 to 3 weeks after sowing, the trial plants are treated at the one-leaf stage. The compounds of the invention, formulated in the form of wettable powders (WP) or as emulsion concentrates (EC), are then sprayed onto the green parts of the plants in the form of an aqueous suspension or emulsion at a water application rate equating to 600 to 800 I/ha, with addition of 0.2% wetting agent. After the trial plants have been left to stand in a greenhouse under optimal growth conditions for about 3 weeks, the efficacy of the formulations is scored visually in comparison to untreated controls (herbicidal action in percent (%): 100% efficacy=the plants have died, 0% efficacy=like control plants). In this trial, for example, compound no.

[9] = system: Stellaria media; experiment: as above; conditions: 80 g/ha, visual score after about 3 weeks vs untreated controls
Experimental: as §2

[10] = system: Ipomoea purpurea; experiment: as above; conditions: 80 g/ha, visual score after about 3 weeks vs untreated controls
Experimental: as §2

[11] = system: Viola tricolor; experiment: as above; conditions: 80 g/ha, visual score after about 3 weeks vs untreated controls
Experimental: as §2

[12] = system: Abutilon theophrasti; experiment: as above; conditions: 80 g/ha, visual score after about 3 weeks vs untreated controls
Experimental: as §2

Cn1ncc(-c2ccc(C(F)(F)F)c(=O)n2C)c(O)c1=O [1-4, 4-hydroxy-2-methyl-5-(1-methyl-3-(trifluoromethyl)pyrid-2-on-6-yl)-pyridazin-3-one]
at least 80%: herbicidal activity in percent (efficacy) [1] | herbicidal activity in percent (efficacy) [2] | herbicidal activity in percent (efficacy) [3] | herbicidal activity in percent (efficacy) [4] | herbicidal activity in percent (efficacy) [5] | herbicidal activity in percent (efficacy) [6] | herbicidal activity in percent (efficacy) [7] | herbicidal action in percent (efficacy) [8] | herbicidal action in percent (efficacy) [9] | herbicidal action in percent (efficacy) [10] | herbicidal action in percent (efficacy) [11] | herbicidal action in percent (efficacy) [12]
